Measurements as given in patent US20140088052A1, “CHALCONE DERIVATIVES AS NRF2 ACTIVATORS” (THE JOHNS HOPKINS UNIVERSITY, priority 2011, published 2014).

Assays:
Nrf2 [1] = test: Concentration and time-course studies of Nrf2-driven antioxidant genes in Beas-2B cells; format: cell-based, human
Procedure: The expression of Nrf2-regulated genes GCLM, HO1, and NQO1 was analyzed in the tissues by qRT-PCT as a surrogate marker of Nrf2 activity. β-actin was used for normalization. Data are representative of three independent experiments. […] The expression of Nrf2-regulated genes GCLM, HO1, and NQO1 was analyzed in the tissues by aRT-PCR. β-actin was used for normalization. Data are representative of three independent experiments. Values shown are mean±SD of triplicate wells (P≦0.05); […] […] Total RNA was extracted from cells/tissue using Qiagen RNeasy kit (Qiagen Corporation, Valencia, Calif.) and reverse transcription was performed by using random hexamers and MultiScribe reverse transcriptase according to the manufacturer's recommendations (Applied Biosystems, Foster City, Calif., USA). Quantitative real-time RT-PCR analyses of Nrf2, NQO1, HO1, and GCLM were performed by using Assay-on-Demand primers and probe sets from Applied Biosystems. Assays were performed using the ABI 7000 Taqman system (Applied Biosystems, Foster City, Calif.). β-actin was used for normalization.

Nrf2 [2] = test: Nrf2-regulated gene expression with or without N-acetyl-cysteine in Beas-2B cells; format: cell-based, human; details: 10 μM with NAC 10 mM, 24 h
Procedure: Cells were harvested 24 h after the treatment and the Nrf2-driven expression of NQO1, HO-1, and GCLM was quantified. β-actin was used for normalization. Data are representative of three independent experiments. Values shown are mean±SD of triplicate wells (P≦0.05);
The activation of Nrf2 by various electrophiles and compounds that are Michael acceptors is attributed to changes in ROS production and or redox environment and or direct cysteine modification in Keap1. Nguyen, T., et al., The Nrf2-antioxidant response element signaling pathway and its activation by oxidative stress. J. Biol. Chem. 2009, 284, 13291-13295; McMahon, M., et al., Keap1 perceives stress via three sensors for the endogenous signaling molecules nitric oxide, zinc, and alkenals. Proc. Natl. Acad. Sci. U.S.A. 2010, 107, 18838-18843. Whether 2b activates Nrf2 by generating ROS or redox changes also was examined.

Nrf2 [3] = test: Pharmacodynamic markers of Nrf2 activity (NQO1, HO-1, GCLM) in irradiated mice; format: in vivo; details: irradiated (6.9Gy) mice, day 12, compared to vehicle
Procedure: NQO1, HO-1 and GCLM levels were analyzed in bone marrow (FIG. 12A), lung (FIG. 12B) and small intestine (FIG. 12C) harvested at day 12 from irradiated (6.9Gy) mice treated with vehicle or drug.

[4] = system: chemotherapy-induced neutropenia; test: Cyclophosphamide-induced reversible neutropenia in mice; format: in vivo; details: cyclophosphamide i.p. day 0 and day 5, treatment every 48 h, compared to vehicle
Procedure: At indicated time periods, a cohort of mice was sacrificed. Peripheral blood was collected and differential blood cell count was analyzed using a Hemavet 950S.

[5] = Beas-2B cells, 10 μM, 6 h after treatment

COc1ccccc1C(=O)/C=C/c1ccccc1C(F)(F)F [Compound 2b, (E)-1-(2-methoxyphenyl)-3-(2-(trifluoromethyl)phenyl)prop-2-en-1-one]
expression of HO-1 compared to sulforaphane (Nrf2 [1]; Beas-2B cells, 10 μM): 6 fold
expression of NQO1 over time (Nrf2 [1]; Beas-2B cells, 10 μM, 6, 12, 24 and 48 h): highest at 24 h and remained significantly elevated even at 48 h
highest induction of GCLM (Nrf2 [1]; [5]): approximately 7 fold
highest induction of HO-1 (Nrf2 [1]; [5]): approximately 150 fold
expression of GCLM and HO-1 at 48 h (Nrf2 [1]; Beas-2B cells, 10 μM, 48 h): comparable to vehicle by 48 h
increase in the expression of GCLM (Nrf2 [1]; Beas-2B cells, 20 μM, 24 h): approximately 5 fold
increase in the expression of NQO1 (Nrf2 [1]; Beas-2B cells, 20 μM, 24 h): ~10 fold
Nrf2-regulated gene expression (GCLM, NQO1, HO1) (Nrf2 [1]; Beas-2B cells, 2.5, 5, 10, 20 μM, 24 h): significantly increased the Nrf2-regulated gene expression in a concentration-dependent manner
expression of GCLM, NQO1 and HO1 in the presence of NAC (Nrf2 [2]): potentially increase the expression of Nr2-regulated antioxidant genes in the presence of NAC
Nrf2 regulated antioxidants (NQO1, HO-1, GCLM) in BM-MNC, gut and lung (Nrf2 [3]): significantly elevated
duration of neutropenia [4]: significantly reduced the duration of neutropenia
